# Experimental data reported in patent US4192799A, “Conjugates formed by reacting a prostaglandin mimic compound with a carrier molecule” (The Upjohn Company, priority 1977, dated 1980).
# Read-outs that look alike come from different tables or passages of the source.
# Legend:
# [1] = system: antiserum raised against 9-deoxy-9-methylene PGF2 (KLH Conjugate); assay: RIA cross-reactivity of antiserum raised against 9-deoxy-9-methylene PGF2, KLH conjugate; assay type: binding, Albino New Zealand rabbits; conditions: relative to PGE2; ng required to displace 50% of [3H]PGE2
# Description: (§1) Five milligrams of KLH-PGE2 mimic conjugate is added to 2.25 ml. of sterile saline (0.9%) and 2.25 ml. of Freund's complete adjuvant and blended. 1.0 ml. of this mixture is injected subcutaneously at 20-30 sites on the flanks of four Albino New Zealand rabbits of 2-4 kg. mass. Each rabbit receives a dose of about 1 mg. On the same day, 1.0 ml. of attenuated pertussis vaccine is injected intramuscularly at four sites on the hindquarters of each rabbit.
# (§2) A known amount of PGE-type compound in 0.1 ml. PBSG buffer at pH 7.4±0.2 and 0.1 ml. of the radiolabeled form of the same PGE-type compound (10,000 cpm/0.1 ml. PBSG) are introduced into a 12×75 mm. polypropylene tube. Antiserum (0.1 ml.) against the corresponding mimic is added at a dilution which will bind 50%±3% of the radiolabeled authentic PGE-type compound in the absence of competition from the unlabeled PGE-type compound. The tube is incubated for 1 hour at 25° and then 12-16 hours at 4°. Antibody bound and free fractions are separated with dextrancoated charcoal. Other separation techniques are acceptable.
# (§3) The data below show the cross-reactivity of antiserum raised against 9-deoxy-9-methylene PGF2 to various PGE-type compounds, relative to PGE2. Percent cross-reaction is defined as (ng. of PGE2 required to displace 50% of [^3 H] PGE2)/(ng. heterologous PG required to displace 50% of [^3 H] PGE2)×100.
# [2] = system: antiserum raised against 9-deoxy-9-methylene PGF2 (BSA Conjugate); assay: RIA cross-reactivity of antiserum raised against 9-deoxy-9-methylene PGF2, BSA conjugate; assay type: binding, Albino New Zealand rabbits; conditions: relative to PGE2; ng required to displace 50% of [3H]PGE2
# Description: as §1
# Antibodies against other PG mimics can be elicited by substituting equal amounts of other conjugates, such as those of preparations 1 through 9, for the KLH-PGE2 mimic conjugate in procedure 1. For example, the following conjugates can be substituted:
# as §2, §3
# [3] = system: antibodies against PGE1 -BSA conjugate (Example 5); conditions: Table 1 Example 5, conjugate PGE1 -BSA, PGE1 = 100; cited from earlier work
# [4] = system: antibodies against PGE1 -BSA conjugate (Example 6); conditions: Table 1 Example 6, conjugate PGE1 -BSA, PGE1 = 100; cited from earlier work
# [5] = system: antibodies against PGE2 -BSA conjugate (Example 1); conditions: Table II Example 1, conjugate PGE2 -BSA, PGE2 = 100; cited from earlier work
# [6] = system: antibodies against PGE2 -BSA conjugate (Example 3); conditions: Table II Example 3, conjugate PGE2 -BSA, PGE2 = 100; cited from earlier work
# [7] = system: antibodies against PGE1 -BSA conjugate (Example 4); conditions: Table 1 Example 4, conjugate PGE1 -BSA, PGE1 = 100; cited from earlier work
# [8] = system: antibodies against PGE1 -BSA conjugate (Example 7); conditions: Table 1 Example 7, conjugate PGE1 -BSA, PGE1 = 100; cited from earlier work
# [9] = system: antibodies against PGE1 -poly-1-lysine conjugate; conditions: Table 1 Example 2, conjugate PGE1 -poly-1-lysine, PGE1 = 100; cited from earlier work
# [10] = system: antibodies against PGE2 -BSA conjugate (Example 5); conditions: Table II Example 5, conjugate PGE2 -BSA, PGE2 = 100, cited from earlier work
# [11] = system: antibodies against PGE2 -hen gamma globulin conjugate; conditions: Table II Example 4, conjugate PGE2 -hen gamma globulin, PGE2 = 100; cited from earlier work
# [12] = system: antibodies against PGE1 -porcine gamma globulin conjugate; conditions: Table 1 Example 3, conjugate PGE1 -porcine gamma globulin, PGE1 = 100; cited from earlier work
# [13] = system: antibodies against PGE1 -thyroglobulin conjugate; conditions: Table 1 Example 1, conjugate PGE1 -thyroglobulin, PGE1 = 100; cited from earlier work
# [14] = system: antibodies against PGE2 -KLH conjugate; conditions: Table II Example 2, conjugate PGE2 -KLH, PGE2 = 100; cited from earlier work
# [15] = aqueous solution at room temperature; cited from earlier work
compound,measurement,setting,value
CCCCC[C@H](O)/C=C/[C@@H]1[C@@H](CC(=O)CCCCC(=O)O)[C@@H](O)C[C@H]1O [6-keto-PGF1 α],% Cross-Reaction KLH Conjugate,[1],0.10%
same,% Cross-Reaction BSA Conjugate,[2],0.50%
"C=C1C[C@@H](O)[C@H](/C=C/[C@@H](O)CCCCC)[C@H]1C/C=C\CCCC(=O)O [9-deoxy-9-methylene PGF2, 9-deoxy-9-methylene-PGF2]",% Cross-Reaction KLH Conjugate,[1],100%
same,% Cross-Reaction BSA Conjugate,[2],100%
"CCCCCC(=O)CC[C@H]1[C@H](O)CC(=O)[C@@H]1C/C=C\CCCC(=O)O [13,14-dihydro-15-keto-PGE2, 13,14-dihydro-15-keto-PGE]",% Cross-Reaction KLH Conjugate,[1],0.03%
same,% Cross-Reaction BSA Conjugate,[2],0.2%
"CCCCCC(=O)CC[C@@H]1[C@@H](C/C=C\CCCC(=O)O)[C@@H](O)C[C@H]1O [13,14-dihydro-15-keto-PGF2 α]",% Cross-Reaction KLH Conjugate,[1],0.10%
same,% Cross-Reaction BSA Conjugate,[2],0.01%
"CCCCC[C@H](O)CC[C@H]1[C@H](O)CC(=O)[C@@H]1C/C=C\CCCC(=O)O [13,14-dihydro-PGE2]",% Cross-Reaction KLH Conjugate,[1],1.6%
same,% Cross-Reaction BSA Conjugate,[2],3.6%
"CCCCC[C@H](O)CC[C@@H]1[C@@H](C/C=C\CCCC(=O)O)[C@@H](O)C[C@H]1O [13,14-dihydro-PGF2 α]",% Cross-Reaction KLH Conjugate,[1],0.34%
same,% Cross-Reaction BSA Conjugate,[2],0.2%
CCCCCC(=O)/C=C/[C@H]1[C@H](O)CC(=O)[C@@H]1C/C=C\CCCC(=O)O [15-keto-PGE2],% Cross-Reaction KLH Conjugate,[1],0.03%
same,% Cross-Reaction BSA Conjugate,[2],2.5%
CCCCCC(=O)/C=C/[C@@H]1[C@@H](C/C=C\CCCC(=O)O)[C@@H](O)C[C@H]1O [15-keto-PGF2 α],% Cross-Reaction KLH Conjugate,[1],0.01%
same,% Cross-Reaction BSA Conjugate,[2],0.2%
CCCCC[C@H](O)/C=C/[C@H]1C=CC(=O)[C@@H]1CCCCCCC(=O)O [PGA1],% Cross Reaction,[3],25%
same,% Cross Reaction,[4],"10,000%"
same,% Cross-Reaction KLH Conjugate,[1],0.08%
same,% Cross Reaction,[5],7%
same,% Cross Reaction,[6],200%
same,% Cross Reaction,[7],100%
same,% Cross Reaction,[8],6%
same,% Cross-Reaction BSA Conjugate,[2],4.9%
same,% Cross Reaction,[9],220%
CCCCC[C@H](O)/C=C/[C@H]1C=CC(=O)[C@@H]1C/C=C\CCCC(=O)O [PGA2],% Cross Reaction,[3],10%
same,% Cross Reaction,[10],550%
same,% Cross Reaction,[10]; listed as A2,recognized preferentially
same,% Cross Reaction,[4],1000%
same,% Cross-Reaction KLH Conjugate,[1],0.75%
same,% Cross Reaction,[5],7%
same,% Cross Reaction,[6],400%
same,% Cross Reaction,[7],100%
same,% Cross Reaction,[11],3%
same,% Cross-Reaction BSA Conjugate,[2],2.8%
same,% Cross Reaction,[9],440%
CCCCC[C@H](O)/C=C/C1=C(CCCCCCC(=O)O)C(=O)CC1 [PGB1],% Cross Reaction,[4],"100,000%"
same,% Cross-Reaction KLH Conjugate,[1],0.005%
same,% Cross Reaction,[12],10%
same,% Cross Reaction,[8],66%
same,% Cross-Reaction BSA Conjugate,[2],0.1%
same,% Cross Reaction,[9],"31,000%"
CCCCC[C@H](O)/C=C/C1=C(C/C=C\CCCC(=O)O)C(=O)CC1 [PGB2],% Cross Reaction,[10],580%
same,% Cross Reaction,[10]; listed as B2,recognized preferentially
same,% Cross Reaction,[4],"50,000%"
same,% Cross-Reaction KLH Conjugate,[1],0.009%
same,% Cross Reaction,[5],7%
same,% Cross Reaction,[7],100%
same,% Cross-Reaction BSA Conjugate,[2],0.0%
same,% Cross Reaction,[9],"8,500%"
CCCCC[C@H](O)/C=C/[C@H]1C(=O)C[C@H](O)[C@@H]1CCCCCCC(=O)O [PGD1],% Cross-Reaction KLH Conjugate,[1],0.02%
same,% Cross-Reaction BSA Conjugate,[2],4.9%
CCCCC[C@H](O)/C=C/[C@H]1C(=O)C[C@H](O)[C@@H]1C/C=C\CCCC(=O)O [PGD2],% Cross-Reaction KLH Conjugate,[1],0.02%
same,% Cross-Reaction BSA Conjugate,[2],10.0%
CCCCC[C@H](O)/C=C/[C@H]1[C@H](O)CC(=O)[C@@H]1CCCCCCC(=O)O [PGE1],% Cross Reaction,[3],100%
same,% Cross Reaction,[10],55%
same,% Cross Reaction,[4],100%
same,% Cross-Reaction KLH Conjugate,[1],90%
same,% Cross Reaction,[5],10%
same,% Cross Reaction,[6],73%
same,% Cross Reaction,[12],100%
same,% Cross Reaction,[7],100%
same,% Cross Reaction,[13],100%
same,% Cross Reaction,[11],15%
same,% Cross Reaction,[8],100%
same,% Cross-Reaction BSA Conjugate,[2],100%
same,% Cross Reaction,[9],100%
same,% Cross Reaction,[14],110%
"CCCCC[C@H](O)/C=C/[C@H]1[C@H](O)CC(=O)[C@@H]1C/C=C\CCCC(=O)O [PGE2, prostaglandin E2]",% Cross Reaction,[10],100%
same,% Cross Reaction,[4],90%
same,% Cross Reaction,[5],100%
same,% Cross Reaction,[6],100%
same,% Cross Reaction,[7],100%
same,% Cross Reaction,[13],20%
same,% Cross Reaction,[11],100%
same,% Cross Reaction,[9],10%
same,% Cross Reaction,[14],100%
CCCCC[C@H](O)/C=C/[C@@H]1[C@@H](CCCCCCC(=O)O)[C@H](O)C[C@H]1O [PGF1 β],% Cross-Reaction KLH Conjugate,[1],0.30%
same,% Cross-Reaction BSA Conjugate,[2],5.0%
CCCCC[C@H](O)/C=C/[C@@H]1[C@@H](C/C=C\CCCC(=O)O)[C@@H](O)C[C@H]1O [PGF2 α],% Cross-Reaction KLH Conjugate,[1],0.20%
same,% Cross-Reaction BSA Conjugate,[2],1.5%
CCCCC[C@H](O)/C=C/[C@@H]1[C@@H](C/C=C\CCCC(=O)O)[C@H](O)C[C@H]1O [PGF2 β],% Cross-Reaction KLH Conjugate,[1],3.0%
same,% Cross-Reaction BSA Conjugate,[2],4.4%
CCCCC[C@H](O)/C=C/[C@@H]1[C@@H](C/C=C\CCCC(=O)O)[C@@H]2C[C@H]1OO2 [PGH2],half-life,[15],approximately five
PGB3,% Cross Reaction,[5],7%
same,% Cross Reaction,[6],62%
PGE1 α,% Cross-Reaction KLH Conjugate,[1],0.09%
same,% Cross-Reaction BSA Conjugate,[2],2.9%
